Results: paper PMC8165744, “Identification of an Alternative Glycyrrhizin Metabolite Causing Liquorice-Induced Pseudohyperaldosteronism and the Development of ELISA System to Detect the Predictive Biomarker” (Frontiers in Pharmacology, 2021)
Where two headings read alike, the source gives them in different places.

How the values were obtained:
[1] = elimination of GA metabolites in SD rats intravenously injected with GA; type: in vivo, Sprague-Dawley (SD) rats; details: female SD rats
Text: (§1) Briefly, after diluting serum and urine samples with water to obtain suitable concentrations, they were digested with subtilisin (0.91 U/ml), followed by the addition of astragaloside IV (used as an internal standard; Fujifilm Wako Pure Chemicals, Osaka, Japan), and deproteinized using 80% ethanol. […] The transitions (precursor to daughter) monitored and retention times were as follows: ESI(+), 743.4 to 567.5 m/z (35 and 25 V for cone voltage and collision energy, respectively) for compound 1 (8.1 min); ESI(–), 565.5 to 96.5 m/z (80 and 60 V) for 2 (9.6 min); ESI(–), 549.5 to 96.5 m/z (80 and 60 V) for 3 (15.4 min); ESI(+), 727.3 to 551.2 m/z (30 and 25 V) for 4 (11.3 min); ESI(+), 647.6 to 453.6 m/z (40 and 20 V) for 3MGA (15.0 min); ESI(+), 471.3 to 91.0 m/z (40 and 20 V) for GA (13.4 min); ESI(+), 823.5 to 453.6 m/z (30 and 20 V) for GL (18.4 min); and ESI(+), 785.4 to 143.0 m/z (30 and 20 V) for astragaloside IV (3.0 min). Linear regressions over the concentration range of 2 nM to 2 µM for each compound were examined using the peak-area ratio of the compounds to their internal standards and the least-squares method (r ^ 2 > 0.98). The detection limits for 1, GL, and GA were 6.4 nM, and those for 2, 3, and 4, and 3MGA were 3.2 nM.
FIGURE 6 Elimination of glycyrrhizin (GL) metabolites into bile in Sprague-Dawley (SD) rats. Female SD rats (10 week-old) were anesthetized using intraperitoneal injection of urethane (1 g/kg), and biliary tracts were cannulated. […] Concentrations of GA metabolites were measured using liquid chromatography-tandem mass spectrometry (LC-MS/MS) and accumulated elimination of GA-metabolites are means ± standard error (S.E: n = 3).

[2] = measurement of GL metabolites in human serum and urine samples (LC-MS/MS); type: in vivo
Experimental: Measurement of Compound 4 in Human Serum Samples
Human serum samples (100 µl) were pre-treated as described in the protocol reported in our previous study ([Takahashi et al., 2019]), and the concentration of 4 was measured using LC-tandem mass spectrometry (MS/MS) as described below. This study was conducted with the approval of the appropriate ethics committee at Keio University, Chiba University, Kanazawa University, and Kameda Medical Center.
as §1

[3] = pharmacokinetics of GA metabolites in EHBRs orally treated with GA; type: in vivo, Eisai hyperbilirubinuria rats (EHBRs); details: Eisai hyperbilirubinuria rat (EHBR), plasma, oral GA 200 mg/kg, 24 h after treatment, read-out: concentration in plasma sample

accumulation in the bile ([1]; GA 0.2 mg/kg iv, bile collected for 4 h): the highest
accumulative elimination in faeces ([1]; GA iv, faeces collected 24 h after injection): below detectable levels
serum concentration of 4 relative to that of 3 (fold lower) ([2]; human serum, patients with suspected pseudohyperaldosteronism): approximately 10 fold
concentration in urine ([2]; human, one urine sample among 20 available samples): 0.003 µM
number of serum samples in which compound was detected ([2]; of 70 participants taking liquorice-containing herbal preparations): 62 samples
concentration at 24 h ([3]; female EHBRs): 115 µM
concentration at 24 h ([3]; male EHBRs): 189 µM
Compound: CC1(C)[C@@H](OS(=O)(=O)O)CC[C@]2(C)[C@H]3C(=O)C=C4[C@@H]5C[C@@](C)(C(=O)O[C@@H]6O[C@H](C(=O)O)[C@@H](O)[C@H](O)[C@H]6O)CC[C@]5(C)CC[C@@]4(C)[C@]3(C)CC[C@@H]12 [Compound 4, 18β-glycyrrhetyl-3-O-sulfate-30-O-glucuronide]
